From US12102633B2, “Spirolactone compounds” (Quixgen, Inc., priority 2017, dated 2024)
pIC50: −log10 of the molar value.

What was measured:
Human sebocytes = assay: Cellular levels of malonyl-CoA in human sebocytes; assay type: cell-based; conditions: 0.5 h, 30 min incubation, read-out: Malonyl-CoA in Sebo IC50
Protocol: (§1) Shimadzu LC system was used for sample analysis consisting of system controller (Shimadzu CBM-20A), autosampler (Shimadzu SIL-20A), pump A and B (Shimadzu LC-20AD), column oven (Shimadzu CTO-20A), and analytical column (Phenomenex Gemini 5u C18 11A, 100×2 mm). LC was running at 200 μL/min in the binary gradient mode with mobile phase A (5 mM Ammonium Acetate and 5 mM DMBA in water (1,3-Dimethylbutylamine)) and B (methanol). The samples were analyzed on an AB Sciex QTrap4000 LC-MS/MS triple quadrupole mass spectrometer (Applied Biosystems). Malonyl-CoA and malonyl-13C-CoA were monitored in positive ion mode following MRM transitions at 854.2/347.1 and 855.1/246.1, respectively. The product and internal standard were coeluted to the mass spectrometer in 3 s with 50% H2O, 25% MeCN, 25% acetone, and 5 mM ammonium acetate. Ion chromatograms were integrated using the Analyst 1.5.2 software. Peak area ratios were compared against a standard curve and final cellular concentration of malonyl-CoA or production rate of malonyl-13C-CoA was calculated as pmoles/mg protein per minute.
Human sebocytes (Celprogen) were grown in growth media (DMEM with 4.5 g/L glucose, 0.584 g/L L-glutamine (Sigma), 100 units/mL of penicillin and 100 μg/mL of streptomycin (Gibco), 10% fetal bovine serum (Gibco)) at 37° C. in a humidified water jacketed incubator (Forma Scientific) supplemented with 5% CO2 till 100% confluency. Cells grown in 152 cm^2 cell culture dish (Corning) were trypsinized with 0.25% trypsin-EDTA (Gibco), centrifuged at 800 rpm for 10 min (Eppendorf) and resuspended in 4 mL growth media. To 1 μL serial diluted compounds in DMSO, 99 μL cells (around 0.5 million cells suspended in growth media) were added and mixed well followed by incubation in cell culture incubator for 30 min. Cells were then centrifuged at 800 rpm for 10 min and 70 μL 10% trichloroacetic acid was added to each well to lyse the cells and precipitate proteins. Cellular levels of malonyl-CoA were quantitated by LC-MS/MS.

human ACC1 = target: T1, human ACC1 (Homo sapiens, UniProt Q13085); assay: Human ACC enzymatic activity assay (ACC1); assay type: biochemical; conditions: purified human ACC1; read-out: EA-CoA hACC 1 IC50
T1 construct: purchased BPS Bioscience
Protocol: (§2) Human ACC enzymatic activity assays were performed by using purified human ACC1 and ACC2 proteins (BPS Bioscience). ACC1 and ACC2 proteins were diluted in 24.5 μL reaction buffer (50 mM HEPES pH 7.5, 10 mM MgCl2, 2.0 mM DTT, 4.0 mM ATP, 15 mM ^13C-NaHCO3, 0.75 mg/mL BSA, 0.5 mM sodium citrate), and final concentrations of ACC1 and ACC2 were 0.4 μg/mL and 0.48 μg/mL. For each reaction, 0.5 μL of serial diluted compounds were prepared in DMSO in duplicate or triplicate and mixed with the above 24.5 μL reaction mixtures with ACC proteins at 37° C. for 10 min. Meanwhile, 25 μL of reaction buffer plus acetyl-CoA (final concentration: 5 μM) was prepared freshly and added to the above 25 μL mixture to initiate the reaction. After incubation at 37° C. for 1-2 hours, 100 μl ice-cold 10% TCA with malonyl-^13C3-CoA (final concentration: 40 nM, Sigma-Aldrich) was added to terminate the reaction. For LC-MS/MS analysis, 300 μL quenching buffer (acetonitrile:methanol=1:1, 20 μM carbutamide as internal standard) was added to each tube and mixed well. Samples were then centrifuged at 14,000 rpm for 10 min (Eppendorf) and supernatants were loaded onto LC-MS/MS for quantitation of […] (Gao et al., Journal of chromatography B, Analytical technologies in the biomedical and life sciences 853, 303-313 (2007)).
as §1

human ACC2 = target: T2, human ACC2 (Homo sapiens, UniProt O00763); assay: Human ACC enzymatic activity assay (ACC2); assay type: biochemical; conditions: purified human ACC2; read-out: EA-CoA hACC 2 IC50
T2 construct: purchased BPS Bioscience
T2 sequence (O00763 whole entry): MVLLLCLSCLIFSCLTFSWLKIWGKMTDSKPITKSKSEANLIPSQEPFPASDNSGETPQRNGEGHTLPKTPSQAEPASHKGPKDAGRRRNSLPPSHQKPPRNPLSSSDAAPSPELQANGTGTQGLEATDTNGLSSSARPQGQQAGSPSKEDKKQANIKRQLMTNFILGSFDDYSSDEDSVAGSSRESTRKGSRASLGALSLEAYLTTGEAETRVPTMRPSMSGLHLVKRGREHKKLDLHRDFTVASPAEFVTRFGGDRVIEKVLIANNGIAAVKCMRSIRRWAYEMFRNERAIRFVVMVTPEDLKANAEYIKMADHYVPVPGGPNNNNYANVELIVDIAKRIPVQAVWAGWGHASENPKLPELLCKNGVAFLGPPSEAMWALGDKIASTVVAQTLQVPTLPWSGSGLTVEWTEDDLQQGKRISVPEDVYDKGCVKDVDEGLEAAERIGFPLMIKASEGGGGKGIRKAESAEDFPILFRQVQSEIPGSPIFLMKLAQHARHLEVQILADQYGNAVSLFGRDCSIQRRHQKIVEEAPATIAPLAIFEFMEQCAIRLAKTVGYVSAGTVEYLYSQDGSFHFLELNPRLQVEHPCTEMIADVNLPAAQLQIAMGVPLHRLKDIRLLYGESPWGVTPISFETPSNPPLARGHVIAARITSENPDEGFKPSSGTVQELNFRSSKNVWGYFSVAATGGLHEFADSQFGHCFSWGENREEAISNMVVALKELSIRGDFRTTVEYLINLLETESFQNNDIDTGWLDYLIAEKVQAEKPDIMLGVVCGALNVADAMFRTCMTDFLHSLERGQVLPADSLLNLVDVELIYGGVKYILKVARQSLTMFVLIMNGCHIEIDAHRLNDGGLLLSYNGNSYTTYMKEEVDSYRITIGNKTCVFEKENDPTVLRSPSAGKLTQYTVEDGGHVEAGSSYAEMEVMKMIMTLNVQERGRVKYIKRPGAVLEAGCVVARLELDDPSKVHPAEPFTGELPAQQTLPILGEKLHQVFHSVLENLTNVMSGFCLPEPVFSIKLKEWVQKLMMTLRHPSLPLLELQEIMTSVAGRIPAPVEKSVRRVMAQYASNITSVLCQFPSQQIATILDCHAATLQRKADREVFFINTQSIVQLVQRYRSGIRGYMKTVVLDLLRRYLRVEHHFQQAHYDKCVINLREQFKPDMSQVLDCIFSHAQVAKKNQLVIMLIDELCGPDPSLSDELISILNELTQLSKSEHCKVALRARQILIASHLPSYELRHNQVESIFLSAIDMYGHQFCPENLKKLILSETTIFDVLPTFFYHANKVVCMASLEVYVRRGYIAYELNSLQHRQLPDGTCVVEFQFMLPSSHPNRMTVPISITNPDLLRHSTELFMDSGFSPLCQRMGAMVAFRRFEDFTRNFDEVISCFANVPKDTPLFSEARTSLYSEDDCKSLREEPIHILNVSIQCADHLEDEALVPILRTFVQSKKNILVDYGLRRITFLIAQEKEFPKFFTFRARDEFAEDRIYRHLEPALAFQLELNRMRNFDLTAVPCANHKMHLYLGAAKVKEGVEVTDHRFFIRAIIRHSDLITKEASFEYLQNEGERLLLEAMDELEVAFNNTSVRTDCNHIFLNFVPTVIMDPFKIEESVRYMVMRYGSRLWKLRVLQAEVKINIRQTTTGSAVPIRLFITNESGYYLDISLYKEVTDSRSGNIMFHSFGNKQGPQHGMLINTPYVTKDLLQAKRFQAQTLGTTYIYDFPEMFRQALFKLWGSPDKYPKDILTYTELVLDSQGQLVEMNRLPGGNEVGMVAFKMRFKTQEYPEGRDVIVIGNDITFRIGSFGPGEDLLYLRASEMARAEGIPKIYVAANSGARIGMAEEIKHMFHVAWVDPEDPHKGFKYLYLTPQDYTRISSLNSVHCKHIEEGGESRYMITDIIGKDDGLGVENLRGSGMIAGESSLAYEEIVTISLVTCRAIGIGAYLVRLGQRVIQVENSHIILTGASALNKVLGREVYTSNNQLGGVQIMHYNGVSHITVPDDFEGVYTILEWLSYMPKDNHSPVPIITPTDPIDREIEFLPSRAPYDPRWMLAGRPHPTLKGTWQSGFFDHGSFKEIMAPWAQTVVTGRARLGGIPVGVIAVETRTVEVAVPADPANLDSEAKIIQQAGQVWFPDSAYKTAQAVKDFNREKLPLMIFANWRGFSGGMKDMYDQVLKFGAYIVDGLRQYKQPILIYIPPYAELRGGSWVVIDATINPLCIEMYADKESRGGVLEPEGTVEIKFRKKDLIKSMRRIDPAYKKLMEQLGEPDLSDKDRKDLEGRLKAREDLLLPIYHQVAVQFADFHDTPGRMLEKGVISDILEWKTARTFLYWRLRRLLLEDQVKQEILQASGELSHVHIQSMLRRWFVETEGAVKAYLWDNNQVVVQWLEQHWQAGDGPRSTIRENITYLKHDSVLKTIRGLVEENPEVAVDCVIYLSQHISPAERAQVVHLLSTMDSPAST
Protocol: as §2, §1

[1] = tested on: T3, Mouse ACC (ACC protein purified from liver); assay: Mouse ACC enzymatic activity assay; assay type: biochemical; conditions: read-out: EA-CoA mACC IC50
T3 construct: ACC protein was purified by taking advantage of the biotinylation in the carboxylase domain
Protocol: ACC protein was purified by taking advantage of the biotinylation in the carboxylase domain. Male C57BL/6J mice (Jackson Laboratory) at 8-12 weeks of age were euthanized by using CO2 inhalation method and liver was immediately frozen on dry ice. To 100 mg liver was added 1 mL ice-cold tissue lysis buffer (20 mM Tris-HCl pH 7.5, 150 mM NaCl, 1 mM Na2EDTA, 1 mM EGTA, 1% Triton, 2.5 mM sodium pyrophosphate, 1 mM 3-glycerophosphate, 1 mM Na3VO4, 1 μg/mL leupeptin, 1 tablet of protease inhibitor cocktail (Roche) per 10 mL lysis buffer) followed by homogenization on ice with Power Gen 125 homogenizer (Fisher Scientific). After 30 min incubation on ice, tissue lysate was passed through a 10 mL syringe with 18½ G needle for 10 times to shear DNA. The lysate was then subject to 17.5%-35% saturated ammonium sulfate precipitation by adding 880 mg ammonium sulfate powder (Sigma) to 10 mL liver lysate in 10 min with stirring on ice. Sample was centrifuged at 14,000 rpm (Eppendorf) at 4° C. for 10 min and supernatant was saved for further precipitation by adding 880 mg ammonium sulfate powder to 10 ml supernatant in 10 min with stirring on ice. Sample was centrifuged at 14,000 rpm at 4° C. for 10 min. Supernatant was discarded and pellet was dissolved in 10 mL sample buffer (100 mM Tris-HCl, pH 7.5, 1 mM EDTA, 0.1 mM DTT, 0.5 M NaCl, and 5% glycerol). The sample was then added with 1 mL of Strep Mag beads slurry (Genscript) and rotated at 4° C. for 1 hour. Supernatant was discarded and beads were washed with sample buffer for 3 times. Protein was then eluted by adding 10 mL of 2 mM biotin (Promega) prepared in sample buffer. The eluate was then dialyzed at 4° C. for 1 hour by using Slide-A-Lyzer™ Dialysis Cassettes 10K MWCO (Thermo Fisher Scientific) against 3 changes of 200 mL dialysis buffer (50 mM HEPES, pH 7.5, 0.1 mM DTT, 1.0 mM EDTA, and 10% glycerol). Total protein concentration was then quantitated by using BCA protein assay kit (Pierce).
For ACC enzymatic activity assay, 1 μL serial diluted compounds prepared in DMSO in duplicate were mixed with 8 μL dialyzed sample at 37° C. for 10 min. Ninety one L of reaction buffer (50 mM HEPES pH 7.5, 10 mM MgCl2, 2.0 mM DTT, 0.5 mM acetyl-CoA, 4.0 mM ATP, 15 mM ^13C-NaHCO3, 0.75 mg/mL BSA, 0.5 mM sodium citrate) was added to the tube and mixed thoroughly. After incubation at 37° C. for 1 hour, 300 μl ice-cold quenching buffer (acetonitrile:methanol=1:1, 20 μM carbutamide as internal standard) was added to each tube and mixed well to terminate the reaction. Samples were centrifuged at 14,000 rpm for 10 min (Eppendorf) and supernatant was loaded onto LC-MS/MS for quantitation of malonyl-^13C-CoA (Gao et al., Journal of chromatography B, Analytical technologies in the biomedical and life sciences 853, 303-313 (2007)).
as §1

SMILES	pIC50 (Human sebocytes)	also measured
Cc1nc2ccc(C(=O)N3CCC4(CC3)Cc3ccc(C(C)C)cc3C(=O)O4)cc2[nH]1 [Example 7, 7-isopropyl-1′-(2-methyl-1H-benzo[d]imidazole-6-carbonyl)spiro[isochroman-3,4′-piperidin]-1-one]	5.21	–
COC(=O)c1cncc(-c2ccc3c(c2)C(=O)OC2(CCN(C(=O)c4cc(OC)c5cccc(C6CC6)c5n4)CC2)C3)c1 [Example 19, methyl 5-(1′-(8-cyclopropyl-4-methoxyquinoline-2-carbonyl)-1-oxospiro[isochroman-3,4′-piperidin]-7-yl)nicotinate]	–	pIC50 (human ACC1): 5.95; pIC50 (human ACC2): 6.13
CCc1nc2ccc(C(=O)N3CCC4(CC3)Cc3ccc(C(C)C)cc3C(=O)O4)cc2[nH]1 [Example 12, 1′-(2-ethyl-1H-benzo[d]imidazole-6-carbonyl)-7-isopropylspiro[isochroman-3,4′-piperidin]-1-one]	5.46	–
CC(C)c1ccc2c(c1)C(=O)OC1(CCN(C(=O)c3ccc4[nH]ncc4c3)CC1)C2 [Example 8, 1′-(1H-indazole-5-carbonyl)-7-isopropylspiro[isochroman-3,4′-piperidin]-1-one]	6.35	–
COc1ccc2ncc(C(=O)N3CCC4(CC3)Cc3ccc(C(C)C)cc3C(=O)O4)cc2c1 [Example 11, 7-isopropyl-1′-(6-methoxyquinoline-3-carbonyl)spiro [isochroman-3,4′-piperidin]-1-one]	6.85	–
CC(C)c1ccc2c(c1)C(=O)OC1(CCN(C(=O)c3ccc4[nH]c(=O)n(C)c4c3)CC1)C2 [Example 13, 7-isopropyl-1′-(3-methyl-2-oxo-2,3-dihydro-1H-benzo [d]imidazole-5-carbonyl)spiro[isochroman-3,4′-piperidin]-1-one]	5.61	–
CC(C)c1ccc2c(c1)C(=O)OC1(CCN(C(=O)c3ccc4cn[nH]c4c3)CC1)C2 [Example 10, 1′-(1H-indazole-6-carbonyl)-7-isopropylspiro-[isochroman-3,4′-piperidin]-1-one]	6.17	–
COC(=O)c1cncc(-c2ccc3c(c2)C(=O)OC2(CCN(C(=O)c4cc(OC)c5c(C)cn(C6CC6)c5c4)CC2)C3)c1 [Example 21, methyl 5-(1′-(1-cyclopropyl-4-methoxy-3-methyl-1H-indole-6-carbonyl)-1-oxospiro[isochroman-3,4′-piperidin]-7-yl)nicotinate]	–	pIC50 (human ACC1): 6.53; pIC50 (human ACC2): 6.66
CC(C)c1ccc2c(c1)C(=O)OC1(CCN(C(=O)c3cc4ncccc4[nH]3)CC1)C2 [Example 9, 7-isopropyl-1′-(1H-pyrrolo[3,2-b]pyridine-2-carbonyl)-spiro[isochroman-3,4′-piperidin]-1-one]	6.15	–
COc1cc(C(=O)N2CCC3(CC2)Cc2ccc(Nc4ccnn4C)cc2C(=O)O3)cc2c(OC)cccc12 [Example 5, 1′-(4,8-dimethoxy-2-naphthoyl)-7-((1-methyl-1H-pyrazol-5-yl)amino)spiro[isochroman-3,4′-piperidin]-1-one]	–	pIC50 [1]: 9.43
COc1cc(C(=O)N2CCC3(CC2)Cc2ccc(-c4cncc(C(=O)O)c4)cc2C(=O)O3)cc2c1c(C)cn2C1CC1 [Example 22, 5-(1′-(1-cyclopropyl-4-methoxy-3-methyl-1H-indole-6-carbonyl)-1-oxospiro[isochroman-3,4′-piperidin]-7-yl)nicotinic acid]	–	pIC50 (human ACC1): 7.62; pIC50 (human ACC2): 7.95
